Experimental data from the NIST ThermoML archive (doi:10.1021/je200073x).

Key:
[1] = 101.33 kPa, Liquid; for viscosity: Concentric cylinders viscometry; for electrical conductivity: Metler Toledo SevenEasy conductivity meter; for mass density: Vibrating tube method
[2] = molar heat capacity at constant pressure; conditions: 101.33 kPa, Liquid, Small sample (50 mg) DSC

CCCCCC[n+]1ccn(C)c1.FC(F)(F)C(F)(F)[P-](F)(F)(F)(C(F)(F)C(F)(F)F)C(F)(F)C(F)(F)F
Conditions	electrical conductivity [S/m]	mass density [kg/m3]	molar heat capacity at constant pressure [J/K/mol]	viscosity [mPa·s]
[1], 293.15 K	0.1303	1555.6	–	114.3
[1], 298.15 K	0.167	1550.1	–	88.2
[1], 303.15 K	0.209	1544.7	–	68.4
[1], 308.15 K	0.258	1539.3	–	54.1
[1], 313.15 K	0.313	1533.9	–	43.2
[1], 318.15 K	0.374	1528.7	–	35.1
[1], 323.15 K	0.44	1523.5	–	28.9
[1], 328.15 K	0.514	1518	–	24.4
[1], 333.15 K	0.593	1512.6	–	20.3
[1], 338.15 K	0.676	1507.2	–	17.3
[1], 343.15 K	0.769	1501.8	–	14.8
[2], 293.15 K	–	–	725.56	–
[2], 294.15 K	–	–	726.17	–
[2], 295.15 K	–	–	726.78	–
[2], 296.15 K	–	–	728.01	–
[2], 297.15 K	–	–	728.62	–
[2], 298.15 K	–	–	729.85	–
[2], 299.15 K	–	–	730.46	–
[2], 300.15 K	–	–	731.68	–
[2], 301.15 K	–	–	732.29	–
[2], 302.15 K	–	–	733.52	–
[2], 303.15 K	–	–	734.13	–
[2], 304.15 K	–	–	735.36	–
[2], 305.15 K	–	–	735.97	–
[2], 306.15 K	–	–	737.19	–
[2], 307.15 K	–	–	737.81	–
[2], 308.15 K	–	–	738.42	–
[2], 309.15 K	–	–	739.64	–
[2], 310.15 K	–	–	740.25	–
[2], 311.15 K	–	–	741.48	–
[2], 312.15 K	–	–	742.09	–
[2], 313.15 K	–	–	743.32	–
[2], 314.15 K	–	–	743.93	–
[2], 315.15 K	–	–	745.15	–
[2], 316.15 K	–	–	745.77	–
[2], 317.15 K	–	–	746.99	–
[2], 318.15 K	–	–	747.6	–
[2], 319.15 K	–	–	748.83	–
[2], 320.15 K	–	–	749.44	–
[2], 321.15 K	–	–	750.05	–
[2], 322.15 K	–	–	751.28	–
[2], 323.15 K	–	–	751.89	–
[2], 324.15 K	–	–	752.5	–
[2], 325.15 K	–	–	753.11	–
[2], 326.15 K	–	–	754.34	–
[2], 327.15 K	–	–	754.95	–
[2], 328.15 K	–	–	756.17	–
[2], 329.15 K	–	–	756.79	–
[2], 330.15 K	–	–	758.01	–
[2], 331.15 K	–	–	758.62	–
[2], 332.15 K	–	–	759.24	–
[2], 333.15 K	–	–	759.85	–
[2], 334.15 K	–	–	760.46	–
[2], 335.15 K	–	–	761.07	–
[2], 336.15 K	–	–	762.3	–
[2], 337.15 K	–	–	762.91	–
[2], 338.15 K	–	–	763.52	–
[2], 339.15 K	–	–	764.75	–
[2], 340.15 K	–	–	765.36	–
[2], 341.15 K	–	–	765.97	–
[2], 342.15 K	–	–	767.2	–
[2], 343.15 K	–	–	767.81	–

CCCCCCn1cc[n+](C)c1.F[P-](F)(F)(F)(F)F [1-hexyl-3-methylimidazolium hexafluorophosphate]
Conditions	electrical conductivity [S/m]	mass density [kg/m3]	molar heat capacity at constant pressure [J/K/mol]	viscosity [mPa·s]
[1], 293.15 K	0.0388	1296.7	–	693.1
[1], 298.15 K	0.0543	1292.9	–	485.8
[1], 303.15 K	0.074	1288.7	–	350.9
[1], 308.15 K	0.0992	1285.1	–	255.4
[1], 313.15 K	0.1301	1281	–	189.4
[1], 318.15 K	0.168	1277	–	147.5
[1], 323.15 K	0.212	1273	–	114.7
[1], 328.15 K	0.264	1269.1	–	91.1
[1], 333.15 K	0.322	1265.2	–	73.5
[1], 338.15 K	0.391	1261.2	–	60
[1], 343.15 K	0.465	1257	–	49.6
[2], 293.15 K	–	–	421.53	–
[2], 294.15 K	–	–	422.15	–
[2], 295.15 K	–	–	422.78	–
[2], 296.15 K	–	–	423.09	–
[2], 297.15 K	–	–	423.4	–
[2], 298.15 K	–	–	424.02	–
[2], 299.15 K	–	–	424.34	–
[2], 300.15 K	–	–	424.96	–
[2], 301.15 K	–	–	425.27	–
[2], 302.15 K	–	–	426.21	–
[2], 303.15 K	–	–	426.83	–
[2], 304.15 K	–	–	427.15	–
[2], 305.15 K	–	–	427.46	–
[2], 306.15 K	–	–	428.08	–
[2], 307.15 K	–	–	428.71	–
[2], 308.15 K	–	–	429.33	–
[2], 309.15 K	–	–	429.96	–
[2], 310.15 K	–	–	430.58	–
[2], 311.15 K	–	–	431.21	–
[2], 312.15 K	–	–	431.52	–
[2], 313.15 K	–	–	432.14	–
[2], 314.15 K	–	–	432.77	–
[2], 315.15 K	–	–	433.39	–
[2], 316.15 K	–	–	434.02	–
[2], 317.15 K	–	–	434.64	–
[2], 318.15 K	–	–	434.95	–
[2], 319.15 K	–	–	435.58	–
[2], 320.15 K	–	–	436.2	–
[2], 321.15 K	–	–	436.83	–
[2], 322.15 K	–	–	437.45	–
[2], 323.15 K	–	–	437.76	–
[2], 324.15 K	–	–	438.7	–
[2], 325.15 K	–	–	439.32	–
[2], 326.15 K	–	–	439.95	–
[2], 327.15 K	–	–	440.89	–
[2], 328.15 K	–	–	441.82	–
[2], 329.15 K	–	–	442.45	–
[2], 330.15 K	–	–	443.07	–
[2], 331.15 K	–	–	444.01	–
[2], 332.15 K	–	–	444.63	–
[2], 333.15 K	–	–	445.26	–
[2], 334.15 K	–	–	445.88	–
[2], 335.15 K	–	–	446.51	–
[2], 336.15 K	–	–	447.44	–
[2], 337.15 K	–	–	448.07	–
[2], 338.15 K	–	–	448.69	–
[2], 339.15 K	–	–	449.32	–
[2], 340.15 K	–	–	450.25	–
[2], 341.15 K	–	–	450.56	–
[2], 342.15 K	–	–	451.5	–
[2], 343.15 K	–	–	452.44	–
